Results on 8 compounds are retold here after doi:10.1101/2025.09.04.674342, “Tandem association of CLOCK:BMAL1 complexes on DNA enables recruitment of CBP/p300 through multivalent interactions” (bioRxiv, 2025).

Series [1] has as its target T1, CBP KIX (Mus musculus, UniProt P45481).
T1 construct: mouse CBP (UniProt P45481) KIX (residues 586–672); made in house; host or cells: Rosetta (DE3) E. coli
Kind of series: Fluorescence polarization competition assay, CBP KIX:TAD WT titrated with KG-501. It counts as binding. How it is done:
TAMRA fluorescent probe covalently attached to the N-terminus; the C-terminus of the Δswitch peptide was amidated, while the others were left as a free carboxyl group. Equilibrium binding assays (Fig. 5b) with CBP KIX, TAZ1, and TAZ2 and competition assay with CBP KIX:TAD WT titrated with KG-501 (Fig. 5i) were performed in 10 mM MES pH 6.5, 50 mM NaCl and 0.05% (v/v) Tween-20. Concentrated stocks of BMAL1 TAD probes were stored between 15–200 μM at −70°C and diluted in assay buffer to 50 nM alone (binding assays) or to 10 nM bound to 2 μM CBP KIX (competition assay) and in the presence of increasing concentrations of KG-501. Plates were incubated at room temperature for 10–20 minutes prior to analysis. Binding was monitored by changes in fluorescence polarization with an EnVision 2103 multilabel plate reader (Perkin Elmer) with excitation at 531 nm and emission at 595 nm. The Hill coefficient and equilibrium binding dissociation constant (KD) were calculated by fitting the dose-dependent change in millipolarization (Δmp) to a one-site specific binding model (binding assays) or an [inhibitor] vs. response (three parameters) model (competition assay) in Prism (GraphPad). Data shown for equilibrium binding assays are from a representative experiment (n=4 replicates) of three independent assays (Fig. 5b). […]
Background: Polarisation of emitted light reports the rotation of a fluorescent probe.

Series [2] concerns CREB-induced Per1-luc activation. Kind of series: Per1-luc reporter in HEK293T cells after forskolin stimulation. It counts as cell-based, human. The note with it: compounds 16 hours, 10 μM forskolin 2 hours before harvest, n = 3, Fig. 5g. As for the experimental part:
HEK293T cells were purchased from ATCC (cat. #CRL-3216) were cultured in 10% DMEM (i.e. 10% (v/v) FBS) and 1X penicillin-streptomycin (Thermo Fisher) at 37°C in an incubator humidified with 5% CO2. Forskolin (CAS 66575-29-9, cat. #F3917, Sigma Aldrich), KG-501/naphthol-AS-E-phosphate (CAS 18228-17-6, cat. #70485, Sigma Aldrich), XX-650–23 (CAS 117739-40-9, cat. #AOB31725, Aobious), and 666–15 (CAS 1433286-70-4, cat. #AMBH97F07B56, Sigma Aldrich) were stored as recommended by the manufacturer and assessed by 1D NMR before use.
For Per1-luc reporter assays with inhibitors, 48-well plates with HEK293T cells were transfected with LT-1 (Mirus) and the following plasmids in duplicate: 5 ng pGL3 Per1-luciferase[8] and 395 ng empty pcDNA4 vector; for CLOCK:BMAL1 activity, 5 ng pGL3 Per1-luciferase, 100 ng pSG5 Clock, 100 ng pSG5 Bmal1, and 195 ng empty pcDNA4 vector. Cells were treated with compounds as indicated or 1% DMSO 24 hours after transfection for 16 hours prior to harvesting. For forskolin treatment, 10 μM forskolin was added 2 hours prior to harvesting. Cells were lysed in Passive Lysis Buffer ([…]) according to the protocol and luciferase activity was measured with Bright-Glo reagent ([…]) on an EnVision plate reader (Perkin Elmer). Each reporter assay was repeated at least three times.

In series [3] the target is T1, CBP KIX. Nature of the series: 15N-1H HSQC NMR titration of 15N CBP KIX with BMAL1 TAD peptides. It counts as binding. The note with it: for binding of locked switch peptides to CBP KIX by pattern of CSPs: Fig. 3d. As for the experimental part: (§1) NMR experiments were conducted on a Varian INOVA 600-MHz spectrometer equipped with ^1H, ^13C, ^15N triple resonance, Z-axis pulsed field gradient cryoprobe. All NMR data were collected at 25°C. NMR data were processed using NMRPipe/NMRDraw[79]. ^15N-^1H HSQC spectra CBP KIX were performed in 330 μL volume in a Shigemi tube with 100 μM ^15N CBP KIX in NMR buffer (10 mM MES pH 6.5, 50 mM NaCl) and 10% (v/v) D2O in the presence of stepwise additions of concentrated stocks of BMAL1 TAD or truncated peptides. ^15N-^1H HSQC spectra of BMAL1 TAD WT or L606A/L607A were performed in 330 μL volume in a Shigemi tube with 100 μM ^15N BMAL1 TAD in NMR buffer (10 mM MES pH 6.5, 50 mM NaCl) and 10% (v/v) D2O in the presence of stepwise additions of CBP KIX (WT or 3mut), TAZ1, or TAZ2, followed by concentration in an Amicon Ultra centrifugal filter with a 3 kDa MWCO (Merck Millipore). Chemical shift assignments of BMAL1 TAD (entry 25280) and CBP KIX (entry 6750) were obtained from the Biological Magnetic Resonance Data Bank (BMRB); CBP KIX assignments at pH 5.5 were transferred to the spectrum at pH 6.5 via a 3-step pH titration. Titration data for protein interactions were analyzed with NMRViewJ (One Moon Scientific) using chemical shift perturbations defined by the equation ΔδTOT = [(Δδ^1H)^2 + (χ(Δδ^15N)^2]^½ and normalized with the scaling factor χ = 0.5[80].

The conditions of series [4]: cited from earlier work.
The subject of series [5] is CREB. The arrangement: method as in PMID 19810079, PMID 27211267. Particulars: cited from earlier work.
The test system of series [6] is 3mut CBP KIX (Y650A, A654Q, Y658A). Nature of the series: Isothermal titration calorimetry, 3mut CBP KIX with BMAL1 TAD. The series is classed as binding, mouse. Particulars: same conditions as WT KIX; Fig. 4b. As for the experimental part: (§2) ITC measurements were obtained as previously described. Briefly, proteins were extensively dialyzed at 4°C in 10 mM MES pH 6.5, 50 mM NaCl using a 2 kDa molecular weight cutoff filter dialysis tubing (Spectrum Labs) prior to collecting ITC data. ITC was performed on a MicroCal VP-ITC calorimeter at 25°C with a stir speed of 177 rpm, reference power of 10 μCal/sec and 10 μL injection sizes. Protein ratios for the cell and syringe for the ITC assays (3 independent runs for each complex) were 220–230 μM CBP KIX WT or 3mut titrated into 20–25 μM BMAL1 TAD WT or L606A/L607A as indicated (stoichiometry (n) = 0.8–1.1). All data were best fit by a one-site binding model using Origin software.
For orientation: In ITC the heat of successive injections is recorded.

Series [7] has the same test system. Kind of series: 15N-1H HSQC NMR titration of 15N BMAL1 TAD with 3mut CBP KIX. It counts as binding, mouse. The note with it: versus WT KIX. As for the experimental part:
as §1

Series [8] addresses WT CBP KIX. Nature of the series: Isothermal titration calorimetry, CBP KIX WT with BMAL1 TAD. The series is classed as binding, mouse. As for the experimental part:
as §2

Series [9] deals with T2, CBP TAZ2 (Mus musculus, UniProt P45481, C1776A/C1784A/C1827A/C1828A).
T2 construct: Mouse CBP (UniProt P45481) TAZ2 (residues 1764–1855); MBP; made in house; host or cells: E. coli (BL21)
T2 sequence (P45481 1764-1855 C1776A/C1784A/C1827A/C1828A): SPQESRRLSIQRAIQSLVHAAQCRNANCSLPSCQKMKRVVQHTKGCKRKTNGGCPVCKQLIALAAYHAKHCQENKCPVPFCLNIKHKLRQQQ
Kind of series: 15N-1H HSQC NMR titration of 15N BMAL1 TAD L606A/L607A with CBP TAZ2. It counts as binding. The note with it: 100 μM 15N TAD L606A/L607A; Fig. 6g,h. How it is done:
as §1

Series [10] deals with T1, CBP KIX. Kind of series: 15N-1H HSQC NMR titration of 15N BMAL1 TAD L606A/L607A with CBP KIX. Particulars: versus WT TAD with WT KIX. The series is classed as binding. As for the experimental part:
as §1

In series [11] the target is T3, CBP TAZ1 (Mus musculus, UniProt P45481).
T3 construct: Mouse CBP (UniProt P45481) TAZ1 (residues 340–439); made in house; host or cells: Rosetta (DE3) E. coli
Kind of series: 15N-1H HSQC NMR titration of 15N BMAL1 TAD L606A/L607A with CBP TAZ1. It counts as binding. The note with it: 100 μM 15N TAD L606A/L607A; Fig. 6e,f. As for the experimental part:
as §1

No end group written: not given here.

T1 sequence (P45481 586-672): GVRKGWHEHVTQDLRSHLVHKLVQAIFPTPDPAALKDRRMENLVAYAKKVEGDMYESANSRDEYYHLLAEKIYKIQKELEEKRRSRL
T3 sequence (P45481 340-439): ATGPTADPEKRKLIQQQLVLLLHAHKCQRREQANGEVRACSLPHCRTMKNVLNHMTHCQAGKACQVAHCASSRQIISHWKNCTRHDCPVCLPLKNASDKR

As a reminder, the IC50 is the concentration needed to halve the response being measured. In general, Ki refers to the dissociation constant of the complex between target and ligand, obtained from inhibition or displacement. Take `O=C(Nc1ccc(Cl)cc1)c1cc2ccccc2cc1OP(=O)(O)O` [KG-501, naphthol-AS-E-phosphate]: the 50% inhibitory concentration (IC50) in series [1] (2 μM CBP KIX bound to 10 nM [5,6] TAMRA-labeled minimal BMAL1 TAD probe, 10 mM MES pH 6.5, 50 mM NaCl, 0.05% Tween-20, mean from 2 replicates done in duplicate, read-out: IC50, displacement of CBP KIX from TAD probe) turned out to be 222 ± 22.5 µM. Also, the inhibitory constant (Ki) in series [1] (KD = 2 μM set for the BMAL1 TAD-CBP KIX interaction, read-out: Ki calculated from the Cheng-Prusoff equation) was 111 µM. In addition, the “Activation of Per1-luc reporter after forskolin (Fsk) stimulation” value in [2] was “moderately decreased potency relative to the others”.
Consider “linker-switch: residues 613–626 of mouse BMAL1 (LGGPVDFSDLPWPL)”, for which the “apparent affinity for CBP KIX relative to the isolated switch peptide” value in series [3] (100 μM 15N CBP KIX titrated with peptide, Fig. 3a) was “modestly higher apparent affinity”. Further, the “site of chemical shift perturbations on CBP KIX” value in series [3] (peptide 100 μM, 1:1 stoichiometry with 15N CBP KIX, Fig. 2e) is listed as “perturbs the MLL1 site”.
With `N#Cc1ccc(NC(=O)c2cc3ccccc3cc2O)cc1` [XX-650–23], in series [4], the solubility entry is on record as “poor solubility”. For the same compound, the “activity in cells relative to KG-501” value in [5] is “more active in cells”.
In the case of “BMAL1 TAD: recombinant mouse BMAL1 transactivation domain, residues 579–626”, the “binding by ITC (in words)” value in series [6] is on record as “disrupted”. For the same compound, the “reduction of affinity by mutation of the CBP KIX c-Myb site” value in series [7] was “about 100 fold”. For the same compound, the Kd in [8] (220–230 μM CBP KIX titrated into 20–25 μM BMAL1 TAD, 10 mM MES pH 6.5, 50 mM NaCl, 25°C, 3 independent runs, one-site model, read-out: KD by ITC) is roughly 2 µM.
In the case of “FSDLPWdmPL [P625dmP-switch, cis-locked switch peptide with 5,5-dimethyl L-proline at position 625]”, the “binding of locked switch peptides to CBP KIX by pattern of CSPs” value in [3] (100 μM 15N CBP KIX) is “can bind at the MLL1 site”.
Still for that read-out and setting: the entry for “FSDLPWAL [P625A switch, trans-locked switch peptide with P625A substitution]” is “can bind at the MLL1 site”.
On to FSDLPWPL-OH [switch], for which the “KD for the CBP KIX domain estimated by fitting concentration-dependent CSPs” value in series [3] (100 μM 15N CBP KIX, 10 mM MES pH 6.5, 50 mM NaCl, 25°C, Fig. 3b) is listed as “hundreds of micromolar”. Also, the Kd in series [3] (100 μM 15N CBP KIX, 10 mM MES pH 6.5, 50 mM NaCl, 25°C, Fig. 3b, read-out: KD for the CBP KIX domain estimated by fitting concentration-dependent CSPs) is greater than 500 µM.
With “TAD LL/AA: recombinant BMAL1 TAD (579–626) with L606A/L607A mutation of the IXXLL motif”, the “interaction with CBP TAZ2 by 15N-1H HSQC” value in series [9] is on record as “retained interaction”. In addition, in series [10], the “reduction of affinity for CBP KIX by mutation in the BMAL1 TAD helix” value was “about 100 fold”. Besides, in [8] (same conditions as WT TAD, Fig. 4e), the “binding by ITC (in words)” value was “did not yield any binding heats”. In addition, the “changes of the 15N-1H HSQC spectrum on addition of CBP TAZ1” value in series [11] is recorded as “almost no changes to the spectrum”.
